According to PubChem BioAssay AID248 (DTP/NCI, 2004):
Several values for one entry are separate records, joined by “and”; a condition that tells them apart may be missing. Equal entries are not always repeated. Toxic doses and inconclusive results are not listed. No stated cut-off is given here; in the data, active means T/C of 150% or more; inactive means T/C below 125%.

Tested on: L1210 leukemia ip in BDF1 mice, survival T/C
Experiment: NCI In Vivo Anticancer Drug Screen. Data for tumor model L1210 Leukemia (intraperitoneal) in B6D2F1 (BDF1) mice
Conditions: higher = longer survival
Method in brief: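 Read-out is survival time, reported as the treated-group measurement over the vehicle-control measurement.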

[1] = endpoint: mean survival time, dose: 50.0 mg/kg/injection, schedule: Q01DX001 (ip), vehicle: saline
[2] = endpoint: mean survival time, dose: 100.0 mg/kg/injection, schedule: Q01DX001 (ip), vehicle: saline
[3] = endpoint: mean survival time, dose: 100.0 mg/kg/injection, schedule: Q04DX003 (ip), vehicle: Klucel (hydroxypropylcellulose) (HPC)
[4] = endpoint: mean survival time, dose: 200.0 mg/kg/injection, schedule: Q01DX001 (ip), vehicle: saline
[5] = endpoint: mean survival time, dose: 200.0 mg/kg/injection, schedule: Q04DX003 (ip), vehicle: Klucel (hydroxypropylcellulose) (HPC)
[6] = endpoint: mean survival time, dose: 400.0 mg/kg/injection, schedule: Q01DX001 (ip), vehicle: saline
[7] = endpoint: mean survival time, dose: 400.0 mg/kg/injection, schedule: Q04DX003 (ip), vehicle: Klucel (hydroxypropylcellulose) (HPC)
[8] = endpoint: mean survival time, dose: 25.0 mg/kg/injection, schedule: Q04DX003 (ip), vehicle: Klucel (hydroxypropylcellulose) (HPC)
[9] = endpoint: mean survival time, dose: 100.0 mg/kg/injection, schedule: Q01DX009 (ip), vehicle: saline
[10] = endpoint: mean survival time, dose: 200.0 mg/kg/injection, schedule: Q01DX009 (ip), vehicle: saline
[11] = endpoint: mean survival time, dose: 400.0 mg/kg/injection, schedule: Q01DX009 (ip), vehicle: saline
[12] = endpoint: mean survival time, dose: 100.0 mg/kg/injection, schedule: Q04DX003 (ip), vehicle: saline
[13] = endpoint: mean survival time, dose: 200.0 mg/kg/injection, schedule: Q04DX003 (ip), vehicle: saline
[14] = endpoint: mean survival time, dose: 400.0 mg/kg/injection, schedule: Q04DX003 (ip), vehicle: saline

Measured: T/C

OCC(F)(F)C(F)(F)C(F)(F)C(F)F
inactive: [1] 94 % of control | [2] 102 % of control | endpoint: mean survival time, dose: 100.0 mg/kg/injection, schedule: Q01DX009 (ip), vehicle: Klucel (hydroxypropylcellulose) (HPC) 101 % of control | [3] 102 % of control | [4] 96 % of control | endpoint: mean survival time, dose: 200.0 mg/kg/injection, schedule: Q01DX009 (ip), vehicle: Klucel (hydroxypropylcellulose) (HPC) 101 % of control | [5] 102 % of control | [6] 94 % of control | endpoint: mean survival time, dose: 400.0 mg/kg/injection, schedule: Q01DX009 (ip), vehicle: Klucel (hydroxypropylcellulose) (HPC) 103 % of control | [7] 105 % of control

NC(=O)c1ccc(OCc2cnc3nc(N)nc(N)c3n2)cc1
inactive: endpoint: mean survival time, dose: 20.0 mg/kg/injection, schedule: Q01DX009 (ip), vehicle: Klucel (hydroxypropylcellulose) (HPC) 98 % of control | endpoint: mean survival time, dose: 40.0 mg/kg/injection, schedule: Q01DX009 (ip), vehicle: Klucel (hydroxypropylcellulose) (HPC) 95 % of control | endpoint: mean survival time, dose: 80.0 mg/kg/injection, schedule: Q01DX009 (ip), vehicle: Klucel (hydroxypropylcellulose) (HPC) 109 % of control

c1ccc2c(c1)C1c3cccc[n+]3C2C2C1CC1C3c4ccccc4C(C12)[n+]1ccccc13 (centres undefined)
inactive: endpoint: mean survival time, dose: 1.56 mg/kg/injection, schedule: Q04DX003 (ip), vehicle: saline 100 % of control | endpoint: mean survival time, dose: 3.12 mg/kg/injection, schedule: Q01DX009 (ip), vehicle: saline 111 % of control | endpoint: mean survival time, dose: 3.12 mg/kg/injection, schedule: Q04DX003 (ip), vehicle: saline 96 % of control | endpoint: mean survival time, dose: 6.25 mg/kg/injection, schedule: Q01DX009 (ip), vehicle: saline 100 % of control and 88 % of control | endpoint: mean survival time, dose: 6.25 mg/kg/injection, schedule: Q04DX003 (ip), vehicle: saline 95 % of control | endpoint: mean survival time, dose: 12.5 mg/kg/injection, schedule: Q01DX009 (ip), vehicle: saline 100 % of control and 102 % of control

CCC[CH2][Ge]([CH2]CCC)[CH2]CCC.CCC[CH2][Ge]([CH3])[CH2]CCC
inactive: endpoint: mean survival time, dose: 100.0 mg/kg/injection, schedule: Q04DX002 (ip), vehicle: saline with Tween-80 93 % of control | endpoint: mean survival time, dose: 200.0 mg/kg/injection, schedule: Q04DX002 (ip), vehicle: saline with Tween-80 89 % of control | endpoint: mean survival time, dose: 400.0 mg/kg/injection, schedule: Q04DX002 (ip), vehicle: saline with Tween-80 93 % of control

Clc1ccccc1C(=Nc1ccccc1)C(=Nc1ccccc1)c1ccccc1Cl
inactive: endpoint: mean survival time, dose: 12.5 mg/kg/injection, schedule: Q01DX001 (ip), vehicle: Klucel (hydroxypropylcellulose) (HPC) 106 % of control | endpoint: mean survival time, dose: 25.0 mg/kg/injection, schedule: Q01DX001 (ip), vehicle: Klucel (hydroxypropylcellulose) (HPC) 102 % of control | [8] 90 % of control | endpoint: mean survival time, dose: 50.0 mg/kg/injection, schedule: Q01DX001 (ip), vehicle: Klucel (hydroxypropylcellulose) (HPC) 106 % of control | endpoint: mean survival time, dose: 50.0 mg/kg/injection, schedule: Q04DX003 (ip), vehicle: Klucel (hydroxypropylcellulose) (HPC) 92 % of control | endpoint: mean survival time, dose: 100.0 mg/kg/injection, schedule: Q01DX001 (ip), vehicle: Klucel (hydroxypropylcellulose) (HPC) 88 % of control | [3] 87 % of control | endpoint: mean survival time, dose: 400.0 mg/kg/injection, schedule: Q01DX001 (ip), vehicle: Klucel (hydroxypropylcellulose) (HPC) 90 % of control

CC(C)(C)C1CCC(Br)C(Cl)C1 (centres undefined)
inactive: [9] 98 % of control | [10] 105 % of control | [11] 100 % of control

CC(=O)C1(C)CC=CCC1C(=O)O (centres undefined)
inactive: [9] 107 % of control | [12] 119 % of control | [10] 116 % of control | [13] 101 % of control | [11] 107 % of control | [14] 106 % of control

CCc1cc(C)cc(OC(=O)Nc2ccc(Cl)c(Cl)c2)c1
inactive: endpoint: mean survival time, dose: 100.0 mg/kg/injection, schedule: Q01DX009 (ip), vehicle: saline with Tween-80 97 % of control | [3] 91 % of control | endpoint: mean survival time, dose: 200.0 mg/kg/injection, schedule: Q01DX009 (ip), vehicle: saline with Tween-80 92 % of control | [5] 90 % of control | endpoint: mean survival time, dose: 400.0 mg/kg/injection, schedule: Q01DX009 (ip), vehicle: saline with Tween-80 94 % of control | [7] 91 % of control

Oc1ccccc1-n1c(-c2ccccc2)ccc1-c1ccccc1
inactive: [1] 90 % of control | [2] 98 % of control | [4] 102 % of control | [6] 98 % of control

Cc1nc2nc(N)nc(N)c2nc1CN(C)c1ccc(C(=O)NC(CCC(=O)O)C(=O)O)cc1 (centres undefined)
inactive: endpoint: median survival time, dose: 0.39 mg/kg/injection, schedule: Q01DX009 (ip), vehicle: other 100 % of control | endpoint: median survival time, dose: 0.65 mg/kg/injection, schedule: Q01DX009 (ip), vehicle: other 100 % of control | endpoint: median survival time, dose: 1.08 mg/kg/injection, schedule: Q01DX009 (ip), vehicle: other 100 % of control | endpoint: median survival time, dose: 1.8 mg/kg/injection, schedule: Q01DX009 (ip), vehicle: other 100 % of control and 90 % of control | endpoint: median survival time, dose: 5.0 mg/kg/injection, schedule: Q01DX009 (ip), vehicle: other 90 % of control | endpoint: median survival time, dose: 14.0 mg/kg/injection, schedule: Q01DX009 (ip), vehicle: other 100 % of control | endpoint: median survival time, dose: 39.0 mg/kg/injection, schedule: Q01DX009 (ip), vehicle: other 100 % of control | endpoint: median survival time, dose: 108.0 mg/kg/injection, schedule: Q01DX009 (ip), vehicle: other 100 % of control | endpoint: median survival time, dose: 180.0 mg/kg/injection, schedule: Q01DX009 (ip), vehicle: other 110 % of control | endpoint: median survival time, dose: 300.0 mg/kg/injection, schedule: Q01DX009 (ip), vehicle: other 100 % of control

Cc1ccccc1NC(=O)c1ccccc1
inactive: endpoint: mean survival time, dose: 100.0 mg/kg/injection, schedule: Q04DX003 (ip), vehicle: saline with Tween-80 100 % of control | endpoint: mean survival time, dose: 200.0 mg/kg/injection, schedule: Q04DX003 (ip), vehicle: saline with Tween-80 98 % of control | endpoint: mean survival time, dose: 400.0 mg/kg/injection, schedule: Q04DX003 (ip), vehicle: saline with Tween-80 98 % of control

Nc1nc(-c2cccnc2)nc2c1cnn2-c1ccccc1
inactive: endpoint: mean survival time, dose: 100.0 mg/kg/injection, schedule: Q01DX001 (ip), vehicle: other 100 % of control | endpoint: mean survival time, dose: 100.0 mg/kg/injection, schedule: Q04DX003 (ip), vehicle: other 97 % of control | endpoint: mean survival time, dose: 200.0 mg/kg/injection, schedule: Q01DX001 (ip), vehicle: other 95 % of control | endpoint: mean survival time, dose: 200.0 mg/kg/injection, schedule: Q04DX003 (ip), vehicle: other 104 % of control | endpoint: mean survival time, dose: 400.0 mg/kg/injection, schedule: Q01DX001 (ip), vehicle: other 94 % of control | endpoint: mean survival time, dose: 400.0 mg/kg/injection, schedule: Q04DX003 (ip), vehicle: other 109 % of control

COC(=O)C(C)CN1CCCCC1 (centres undefined)
inactive: endpoint: mean survival time, dose: 50.0 mg/kg/injection, schedule: Q01DX009 (ip), vehicle: saline 101 % of control | [9] 97 % of control | [12] 102 % of control | [10] 101 % of control | [13] 105 % of control

CC(C)[As](C)(=O)O
inactive: endpoint: mean survival time, dose: 6.25 mg/kg/injection, schedule: Q04DX003 (ip), vehicle: Klucel (hydroxypropylcellulose) (HPC) 101 % of control | endpoint: mean survival time, dose: 12.5 mg/kg/injection, schedule: Q04DX003 (ip), vehicle: Klucel (hydroxypropylcellulose) (HPC) 97 % of control | [8] 102 % of control and 103 % of control

CCC(C(=O)O)C(O)(CC(=O)O)C(=O)O (centres undefined)
inactive: [12] 98 % of control | [13] 101 % of control | [14] 95 % of control

O=C(O)c1ccccc1C(=O)OC1CCCC2CCCC21 (centres undefined)
inactive: endpoint: mean survival time, dose: 100.0 mg/kg/injection, schedule: Q01DX001 (ip), vehicle: carboxymethylcellulose (CMC) 95 % of control and 96 % of control | endpoint: mean survival time, dose: 200.0 mg/kg/injection, schedule: Q01DX001 (ip), vehicle: carboxymethylcellulose (CMC) 101 % of control and 98 % of control | endpoint: mean survival time, dose: 400.0 mg/kg/injection, schedule: Q01DX001 (ip), vehicle: carboxymethylcellulose (CMC) 90 % of control and 98 % of control

Cc1ccc(S(=O)(=O)OCC2OC(n3cnc4c(=O)[nH]cnc43)C3OC(C)(C)OC23)cc1 (centres undefined)
inactive: endpoint: mean survival time, dose: 100.0 mg/kg/injection, schedule: Q01DX005 (ip), vehicle: saline 103 % of control | endpoint: mean survival time, dose: 200.0 mg/kg/injection, schedule: Q01DX005 (ip), vehicle: saline 103 % of control

O=S(=O)(O)C(I)I
inactive: endpoint: mean survival time, dose: 6.25 mg/kg/injection, schedule: Q01DX001 (ip), vehicle: saline 103 % of control | endpoint: mean survival time, dose: 12.5 mg/kg/injection, schedule: Q01DX001 (ip), vehicle: saline 100 % of control | endpoint: mean survival time, dose: 25.0 mg/kg/injection, schedule: Q01DX001 (ip), vehicle: saline 98 % of control and 100 % of control | [2] 103 % of control

S=c1ssc2ccccc12
inactive: endpoint: mean survival time, dose: 50.0 mg/kg/injection, schedule: Q04DX003 (ip), vehicle: saline 100 % of control | [2] 94 % of control and 96 % of control | [12] 97 % of control | [4] 94 % of control and 101 % of control | [13] 97 % of control | [6] 98 % of control
